According to ChEMBL document CHEMBL3425509, “Design, synthesis, and biological evaluation of benzofuran- and 2,3-dihydrobenzofuran-2-carboxylic acid N-(substituted)phenylamide derivatives as anticancer agents and inhibitors of NF-κB” (Bioorg Med Chem Lett, 2015):

What was measured:
ACHN = assay: Cytotoxicity against human ACHN cells assessed as cell viability at 10 uM after 72 hrs by sulforhodamine B assay relative to control; type: functional; conditions: read-out: Activity
[1] = Cytotoxicity against human HCT15 cells assessed as cell viability at 10 uM after 72 hrs by sulforhodamine B assay relative to control; type: functional; conditions: HCT-15, 72 h, read-out: Activity
[2] = Cytotoxicity against human NUGC3 cells assessed as cell viability at 10 uM after 72 hrs by sulforhodamine B assay relative to control; type: functional; conditions: NUGC-3, 72 h, read-out: Activity
[3] = biological target: Nuclear factor NF-kappa-B complex (Homo sapiens) (UniProt Q00653+P19838+Q04206); assay: Inhibition of NF-kappaB (unknown origin) transcriptional activity in LPS-induced mouse RAW264.7 cells at 30 uM after 1 hr by secreted alkaline phosphatase assay relative to control; type: cell-based
Chain of Nuclear factor NF-kappa-B complex (Homo sapiens) (P19838 whole entry, looked up): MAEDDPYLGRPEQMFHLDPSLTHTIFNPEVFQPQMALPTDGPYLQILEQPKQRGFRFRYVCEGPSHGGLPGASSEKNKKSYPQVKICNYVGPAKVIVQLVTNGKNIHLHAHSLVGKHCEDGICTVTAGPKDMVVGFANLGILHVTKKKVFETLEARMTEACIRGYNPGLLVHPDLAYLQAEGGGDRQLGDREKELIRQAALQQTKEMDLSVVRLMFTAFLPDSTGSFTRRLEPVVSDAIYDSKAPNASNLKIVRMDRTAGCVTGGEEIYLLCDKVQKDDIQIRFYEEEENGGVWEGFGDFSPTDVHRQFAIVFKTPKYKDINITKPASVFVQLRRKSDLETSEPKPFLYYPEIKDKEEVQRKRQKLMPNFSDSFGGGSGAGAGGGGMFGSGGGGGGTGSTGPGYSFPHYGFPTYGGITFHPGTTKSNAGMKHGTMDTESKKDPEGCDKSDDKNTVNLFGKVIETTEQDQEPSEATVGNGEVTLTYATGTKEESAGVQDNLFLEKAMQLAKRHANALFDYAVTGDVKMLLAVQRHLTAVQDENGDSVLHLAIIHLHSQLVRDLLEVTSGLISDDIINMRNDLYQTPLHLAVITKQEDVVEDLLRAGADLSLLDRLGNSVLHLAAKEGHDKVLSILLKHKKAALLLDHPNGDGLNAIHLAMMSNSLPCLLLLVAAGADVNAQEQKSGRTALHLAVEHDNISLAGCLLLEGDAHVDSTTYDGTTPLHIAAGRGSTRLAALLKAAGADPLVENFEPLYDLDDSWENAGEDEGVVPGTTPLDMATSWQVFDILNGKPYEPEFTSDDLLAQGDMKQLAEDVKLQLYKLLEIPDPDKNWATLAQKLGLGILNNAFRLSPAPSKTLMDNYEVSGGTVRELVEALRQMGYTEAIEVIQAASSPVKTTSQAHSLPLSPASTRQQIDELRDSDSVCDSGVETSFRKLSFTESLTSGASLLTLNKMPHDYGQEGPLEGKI
Chain of Nuclear factor NF-kappa-B complex (Homo sapiens) (Q00653 whole entry, looked up): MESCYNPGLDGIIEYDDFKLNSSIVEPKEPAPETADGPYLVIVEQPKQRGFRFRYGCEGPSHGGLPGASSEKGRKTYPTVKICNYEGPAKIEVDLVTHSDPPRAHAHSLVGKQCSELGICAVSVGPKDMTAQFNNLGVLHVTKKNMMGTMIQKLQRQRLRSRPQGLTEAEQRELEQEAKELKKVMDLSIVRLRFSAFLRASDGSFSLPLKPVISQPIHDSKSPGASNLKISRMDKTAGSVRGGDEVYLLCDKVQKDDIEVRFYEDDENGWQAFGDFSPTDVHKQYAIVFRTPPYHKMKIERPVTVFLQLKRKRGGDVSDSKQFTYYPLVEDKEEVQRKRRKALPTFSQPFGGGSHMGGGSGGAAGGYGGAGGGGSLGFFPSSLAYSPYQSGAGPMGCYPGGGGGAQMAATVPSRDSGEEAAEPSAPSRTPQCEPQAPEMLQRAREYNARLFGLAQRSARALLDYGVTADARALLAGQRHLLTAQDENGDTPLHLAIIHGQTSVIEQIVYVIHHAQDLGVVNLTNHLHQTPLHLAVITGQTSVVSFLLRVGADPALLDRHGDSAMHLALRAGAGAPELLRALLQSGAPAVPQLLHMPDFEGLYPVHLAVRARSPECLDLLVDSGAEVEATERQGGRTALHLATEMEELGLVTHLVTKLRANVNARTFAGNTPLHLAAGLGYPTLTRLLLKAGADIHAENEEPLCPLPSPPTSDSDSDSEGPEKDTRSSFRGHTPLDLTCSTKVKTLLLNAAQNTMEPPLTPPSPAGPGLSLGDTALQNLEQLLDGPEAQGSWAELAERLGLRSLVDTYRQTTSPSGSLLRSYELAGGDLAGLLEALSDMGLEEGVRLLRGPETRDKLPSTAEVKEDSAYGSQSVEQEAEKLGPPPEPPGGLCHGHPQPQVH
Chain of Nuclear factor NF-kappa-B complex (Homo sapiens) (Q04206 whole entry, looked up): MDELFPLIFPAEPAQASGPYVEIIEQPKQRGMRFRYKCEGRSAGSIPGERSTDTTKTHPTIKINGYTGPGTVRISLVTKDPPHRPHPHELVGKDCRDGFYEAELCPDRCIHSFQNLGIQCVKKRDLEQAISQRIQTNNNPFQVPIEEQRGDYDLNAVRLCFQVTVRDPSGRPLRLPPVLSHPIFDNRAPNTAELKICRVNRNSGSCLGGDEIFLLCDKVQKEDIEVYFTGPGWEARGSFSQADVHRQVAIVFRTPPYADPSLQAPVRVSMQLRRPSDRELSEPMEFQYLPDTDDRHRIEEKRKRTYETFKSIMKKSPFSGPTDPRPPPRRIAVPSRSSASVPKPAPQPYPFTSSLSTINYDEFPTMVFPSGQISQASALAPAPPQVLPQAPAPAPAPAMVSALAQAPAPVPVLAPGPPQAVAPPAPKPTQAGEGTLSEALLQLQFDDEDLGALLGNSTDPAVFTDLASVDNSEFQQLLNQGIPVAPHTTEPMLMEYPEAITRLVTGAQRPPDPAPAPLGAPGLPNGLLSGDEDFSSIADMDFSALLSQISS

NCI-H23 = assay: Cytotoxicity against human NCI-H23 cells assessed as cell viability at 10 uM after 72 hrs by sulforhodamine B assay relative to control; type: functional; conditions: NCI-H23, 72 h, read-out: Activity
[4] = Cytotoxicity against human PC3 cells assessed as cell viability at 10 uM after 72 hrs by sulforhodamine B assay relative to control; type: functional; conditions: PC-3, 72 h, read-out: Activity
MDA-MB-231 = assay: Cytotoxicity against human MDA-MB-231 cells assessed as cell viability at 10 uM after 72 hrs by sulforhodamine B assay relative to control; type: functional; conditions: MDA-MB-231, 72 h, read-out: Activity

Compound	inhibition [3]	viability at 10 µM (ACHN)	viability at 10 µM [1]	viability at 10 µM [2]	viability at 10 µM (NCI-H23)	viability at 10 µM [4]	viability at 10 µM (MDA-MB-231)
Cc1ccc(C)c(NC(=O)c2cc3ccccc3o2)c1	58%	82%	94%	88%	94%	98%	102%
O=C(Nc1ccccc1[N+](=O)[O-])c1cc2ccccc2o1	25.5%	91%	73%	95%	95%	92%	102%
O=C(Nc1ccc(Cl)c(Cl)c1)c1cc2ccccc2o1	40%	95%	96%	102%	100%	113%	80%
O=C(Nc1ccc(C(F)(F)F)cc1)c1cc2ccccc2o1	34.5%	79%	80%	75%	89%	74%	89%
COc1ccc(OC)c(NC(=O)c2cc3ccccc3o2)c1	23%	102%	97%	91%	103%	106%	101%
O=C(Nc1cc(C(F)(F)F)ccc1C(F)(F)F)c1cc2ccccc2o1	28.5%	84%	88%	89%	77%	95%	98%
O=C(Nc1cccc(C(F)(F)F)c1)c1cc2ccccc2o1	47.5%	83%	75%	79%	92%	96%	105%
Cc1ccccc1NC(=O)c1cc2ccccc2o1	46%	106%	93%	98%	89%	100%	101%
O=C(Nc1cccc(O)c1)c1cc2ccccc2o1	41%	84%	85%	87%	95%	90%	100%
Cc1cccc(NC(=O)c2cc3ccccc3o2)c1	38%	93%	87%	99%	101%	94%	106%
O=C(Nc1ccccc1)c1cc2ccccc2o1	44%	89%	75%	97%	98%	83%	94%

Now from value to molecule, other results behind:

inhibition [3]	Compound	viability at 10 µM (ACHN)	viability at 10 µM [1]	viability at 10 µM [2]	viability at 10 µM (NCI-H23)	viability at 10 µM [4]	viability at 10 µM (MDA-MB-231)
41%	O=C(Nc1ccc(C(F)(F)F)cc1)C1Cc2ccccc2O1 (stereo unspecified)	124%	96%	99%	97%	60%	82%
34%	Cc1cc(C)cc(NC(=O)C2Cc3ccccc3O2)c1 (stereo unspecified)	136%	91%	95%	97%	94%	97%
22.5%	COc1ccc(NC(=O)C2Cc3ccccc3O2)cc1 (stereo unspecified)	140%	89%	108%	102%	81%	94%
22%	Cc1ccc(C)c(NC(=O)C2Cc3ccccc3O2)c1 (stereo unspecified)	129%	88%	81%	103%	55%	88%
39.5%	COc1ccc(OC)c(NC(=O)C2Cc3ccccc3O2)c1 (stereo unspecified)	126%	97%	95%	99%	81%	89%
18.5%	O=C(Nc1ccc(O)cc1)C1Cc2ccccc2O1 (stereo unspecified)	122%	88%	102%	106%	98%	91%
34.5%	O=C(Nc1ccc([N+](=O)[O-])cc1)c1cc2ccccc2o1	94%	84%	95%	101%	87%	111%
